How the values were obtained:
plasma hemostasis [1] = test: Prothrombin time after intravenous administration; assay type: in vivo, rabbit
Protocol: (§1) The investigations were performed on 72 rabbits of the “Chinchilla” breed with a mass of 2.5±0.3 kg, who were administered which solutions of compounds 2, 15, 21, 37 in doses of 15, 30 and 60 mg/kg intravenously. The experiments included the thrombin-test (series No. 7300) and the coagulability-test (series No. 5000) purchased from the scientific-and-production association (SPA) “Renam”, thromboplastin (series No. 240600) and calcium chloride purchased from the SPA “MedioLab”
(§2) The static parameters of the blood and plasma coagulation (partial activated thromboplastin time, thrombin time, maximum coagulation activity (test for auto coagulation) were determined using the Behnk Electronic coagulometer (Germany). The operating principle of this instrument is based on the fact that the formed blood clot breaks the contacts of the pulse counter in the flask-pin circuit, said pin permanently oscillating in a vertical plane. The moment of formation of the clot is registered by stopping the stop watch hand.
(§3) The measurements were effected at a constant temperature of 37° C. maintained by a temperature control unit.
The method of its determination is based on estimation of the coagulation of citrate or oxalic blood plasma, when it is mixed with thromboplastin and a calcium chloride solution. Since under these conditions the time of formation of the clot depends on the content of II, VII, IX and X factors in the investigated plasma sample, now the test is called “thromboplastin time by Quick” or “activity thromboplastin complex”.
Compounds 2, 15, 21, 37 according to the invention at a concentration of 15, 30 and 60 mg/kg were administered to the above experimental animals intravenously and their blood was taken off after 15, 30, 60 and 120 minutes after the administration.
Citrate blood containing 1 part of citrate per 9 parts of native blood was centrifuged at 3000 rev/min for 10 minutes to obtain plasma deprived of thrombocytes.
Added into a test tube in a water bath were 0.1 ml of plasma and 0.1 ml of a thromboplastin solution. After 60 seconds, 0.1 ml of 0.277% solution of calcium chloride was added and the time of reaction T1 in seconds was registered.

plasma hemostasis [2] = test: Autocoagulation test (coagulating activity A) after intravenous administration; assay type: in vivo, rabbit
Protocol: as §1, §2, §3
Compounds 2, 15, 21, 37 according to the invention at a concentration of 15, 30 and 60 mg/kg were intravenously administered to the above experimental animals and their blood samples were taken off 15, 30, 60 and 120 minutes after the administration.
Added to 0.2 ml of plasma obtained by centrifuging citrate blood at 1500 rev/min within 10 minutes was a glycosilate-calcium mixture (2.0 ml 0.222% CaCl2+0.1 ml of investigated citrate blood) 4, 6, 8, 10 minutes after the preparation of this mixture and the time of coagulation in the sample was determined.
The obtained results in seconds were translated in factors of coagulating activity A in percent, which specify the state of both the coagulating and anticoagulating parts of the blood coagulating system.

[3] = test system: metabolism of nitrogen oxide; test: Morphine abstinence model: nitrites and nitrates NOX− in blood plasma, liver and brain; assay type: in vivo, rats Wistar
Protocol: The experiments were carried out on rats in series of 7 animals on each compound according to the invention. Non-morphinized animal with not administered with compounds according to the invention were used as a control group. […] Then the rats were decapitated, the blood from somnolent arteries was collected in test tubes with solution EDTA as an anticoagulant, centrifuged at 1500 g for 15 minutes at 4° C.
To estimate the intensity of metabolism of nitrogen oxide in rats, quantitative determination of stable metabolites of nitrogen oxide—nitrites and nitrates NOX^− in the blood plasma, supernatanates of the liver and thymus gland, a study was conducted by a spectrometric method, and in the brain supernatanates by a […] method.
The spectrometric method is based the reaction of nitrites with the Griss reagent (a mixture of 2% solution of sulfanilamide and 0.2% N-(1-naphthyl)ethylene diamine. At the first step the nitrite reacts with sulfanilamide with formation of diazonium salt, and then with the second component to form azo dye with an adsorption maximum at 540 nm. For reduction of nitrates into nitrites, a fermentative method was used with bacterial reductase nitrate (Grisham M. B. et al., 1995). The samples of plasma and supernatant of the liver deproteinizated at 100° C. for 5 minutes incubated for 30 minutes at 37° C. in 50.0 mM of HEPES pH 7.4 in the presence of 0.2 unit/ml of Aspergillus reductase nitrate, 5.0 mkM of FAD and 0.1 mM of NAD-Ph. At the end of the reaction lactate dehydrogenase and pyruvate were added for isolation of NAD-Ph interfering with the Griss reaction. Then the Griss reagent was added and after 10-minute incubation the light absorption of the samples was measured at 540 nm. To amount of NOX^− was calculated using sodium nitrate as a standard.
The fluorometric method is based on calculation of the nitrite level by the intensity fluorescence of 2,3-diaminonaphthotriazole, a product of reaction of 2,3-diaminonaphthalene (DAN) and nitrite in an acidic medium (Misko T. R., Schilling R. J., Salvemini D. et al. “A fluorometric assay for the measurement of nitrite of biological samples”. Anal. Biochem., 1993, v. 214, p. 11-16). The brain supernatants deproteinizated at 100° C. were placed in a nitrite regenerating system containing 0.125 unit/ml of nitrate reductases, 25 mkM NADPh and 25 mkM FAD prepared in a 20-mM Tris-HCl buffer with pH 7.6 and incubated for 30 minutes at 37° C. The lactatedehydrogenase/pyruvate system was used for oxidation of the NADPh. Then 316 mkM of the DAN solution in 0.62 M of hydrochloric acids were added and the mixture was incubated for 10 minutes in darkness.
280 mM of NaOH were added for stabilization of the fluorescence of the formed 2,3-diaminonaphthotriazole. The fluorescence intensity was measured in the spectrofluorimeter Hitachi F-3000 at a wavelength of excitation of 365 nm and an emission of 405 nm. The concentration of NOX^− in the brain was calculated by means of a standard solution of sodium nitrate.

[4] = compound alone 20.0 mg/kg intramuscularly
[5] = morphinized rats then compound 20.0 mg/kg intramuscularly

O=c1[nH][nH]c(=O)c2c(Br)ncnc12.[K] [Compound 37, potassium salt of 4-bromine-pyrimido[4,5-D]-6H-pyridazine-5,8-dione]
T, s After 120 minutes (prothrombin time) (plasma hemostasis [1]; dose 15.0 mg/kg intravenously): 11.8 ± 0.1 s | T, s after 15 minutes (prothrombin time) (plasma hemostasis [1]; dose 15.0 mg/kg intravenously): 11.6 ± 0.2 s | T, s after 30 minutes (prothrombin time) (plasma hemostasis [1]; dose 15.0 mg/kg intravenously): 11.6 ± 0.1 s | T, s after 60 minutes (prothrombin time) (plasma hemostasis [1]; dose 15.0 mg/kg intravenously): 11.5 ± 0.2 s | T, s After 120 minutes (prothrombin time) (plasma hemostasis [1]; dose 30.0 mg/kg intravenously): 11.1 ± 0.1 s | T, s after 15 minutes (prothrombin time) (plasma hemostasis [1]; dose 30.0 mg/kg intravenously): 11.3 ± 0.1 s | T, s after 30 minutes (prothrombin time) (plasma hemostasis [1]; dose 30.0 mg/kg intravenously): 11.2 ± 0.2 s | T, s after 60 minutes (prothrombin time) (plasma hemostasis [1]; dose 30.0 mg/kg intravenously): 11.4 ± 0.1 s | T, s After 120 minutes (prothrombin time) (plasma hemostasis [1]; dose 60.0 mg/kg intravenously): 12.0 ± 0.1 s | T, s after 15 minutes (prothrombin time) (plasma hemostasis [1]; dose 60.0 mg/kg intravenously): 12.1 ± 0.1 s | T, s after 30 minutes (prothrombin time) (plasma hemostasis [1]; dose 60.0 mg/kg intravenously): 12.0 ± 0.1 s | T, s after 60 minutes (prothrombin time) (plasma hemostasis [1]; dose 60.0 mg/kg intravenously): 12.1 ± 0.2 s | effect on the prothrombin time index (overall) (plasma hemostasis [1]; doses of 15.0, 30.0, 60.0 mg/kg): have no effect on the prothrombin time index | A, % after 15 minutes (coagulating activity) (plasma hemostasis [2]; dose 15.0 mg/kg intravenously): 82.1% | A, % after 30 minutes (coagulating activity) (plasma hemostasis [2]; dose 15.0 mg/kg intravenously): 102.8% | A, % after 60 minutes (coagulating activity) (plasma hemostasis [2]; dose 15.0 mg/kg intravenously): 88.7% | A, % after 120 minutes (coagulating activity) (plasma hemostasis [2]; dose 15.0 mg/kg intravenously): 100.6% | A, % after 15 minutes (coagulating activity) (plasma hemostasis [2]; dose 30.0 mg/kg intravenously): 99.8% | A, % after 30 minutes (coagulating activity) (plasma hemostasis [2]; dose 30.0 mg/kg intravenously): 68.3% | A, % after 60 minutes (coagulating activity) (plasma hemostasis [2]; dose 30.0 mg/kg intravenously): 105.8% | A, % after 120 minutes (coagulating activity) (plasma hemostasis [2]; dose 30.0 mg/kg intravenously): 70.4% | A, % after 15 minutes (coagulating activity) (plasma hemostasis [2]; dose 60.0 mg/kg intravenously): 74.3% | A, % after 30 minutes (coagulating activity) (plasma hemostasis [2]; dose 60.0 mg/kg intravenously): 63.0% | A, % after 60 minutes (coagulating activity) (plasma hemostasis [2]; dose 60.0 mg/kg intravenously): 64.2% | A, % after 120 minutes (coagulating activity) (plasma hemostasis [2]; dose 60.0 mg/kg intravenously): 66.3% | effect on the coagulation activity, autocoagulation test (overall) (plasma hemostasis [2]; doses 15.0, 30.0, 60.0 mg/kg): have no effect on the coagulation activity | Nitrites in blood plasma, Control + Compound [3, 4]: 16.13 ± 1.80 mkmol/ml | Nitrites in brain, Cortex of cerebrum, Control + Compound [3, 4]: 4.36 ± 0.24 nmol/mg of protein | Nitrites in brain, Hypothalamus, Control + Compound [3, 4]: 6.79 ± 0.92 nmol/mg of protein | Nitrites in brain, Mesencephalon, Control + Compound [3, 4]: 6.84 ± 0.56 nmol/mg of protein | Nitrites in liver, Control + Compound [3, 4]: 0.262 ± 0.018 nmol/mg of protein | Nitrites in blood plasma, Control + Morphine + compound [3, 5]: 15.33 ± 0.87 mkmol/ml | Nitrites in brain, Cortex of cerebrum, Control + Morphine + compound [3, 5]: 4.77 ± 0.28 nmol/mg of protein | Nitrites in brain, Hypothalamus, Control + Morphine + compound [3, 5]: 6.52 ± 0.83 nmol/mg of protein | Nitrites in brain, Mesencephalon, Control + Morphine + compound [3, 5]: 5.63 ± 0.37 nmol/mg of protein | Nitrites in liver, Control + Morphine + compound [3, 5]: 0.274 ± 0.01 nmol/mg of protein
